{
  "source": "patent US6495699B2",
  "about": "“Metalloproteinase inhibitors, pharmaceutical compositions containing them, and their use” (Agouron Pharmaceuticals Inc., priority 1996, dated 2002)",
  "key": {"[1]": {"target": "T1, human collagenase-3 (Coll3) (Homo sapiens, UniProt P45452)", "T1 construct": "the catalytic domain was liberated by treatment with 2 mM APMA at room temperature overnight; ubiquitin (N, cleaved yes); made in house; host or cells: E. coli", "experiment": "Fluorometric MCA-peptide hydrolysis assay, collagenase-3 (Coll3)", "assay_type": "biochemical", "settings": "apparent Ki; 10 μM MCA peptide substrate, 37° C., pH 7.5; read-out: Coll3 (Ki,app)"}, "Human matrilysin (Matr)": {"target": "T2, Human matrilysin (Matr) (Homo sapiens, UniProt P09237)", "T2 construct": "the catalytic domain was liberated by treatment with 2 mM APMA at 37° C. for 2 hours; ubiquitin (cleaved yes); made in house; host or cells: E. coli", "T2 sequence (P09237 95-267)": "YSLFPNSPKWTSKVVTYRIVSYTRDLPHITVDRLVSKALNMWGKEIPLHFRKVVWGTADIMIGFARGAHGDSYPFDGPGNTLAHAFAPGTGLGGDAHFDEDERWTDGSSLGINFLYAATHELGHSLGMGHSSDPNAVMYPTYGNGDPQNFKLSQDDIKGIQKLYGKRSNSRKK", "experiment": "Fluorometric MCA-peptide hydrolysis assay, matrilysin (Matr)", "assay_type": "biochemical", "settings": "apparent Ki; 10 μM MCA peptide substrate, 37° C., pH 7.5; read-out: Matr (Ki,app)", "procedure,_shortened": "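Catalytic domain of E. coli-expressed human matrilysin assayed at 37° C, pH 7.5 Tricine buffer, 2% DMSO, with 10 μM MCA-Pro-Leu-Gly-Leu-DPA-Ala-Arg-NH2; fluorescence ex 328/em 393 nm over 60 min. Ki,app from steady-state rates fitted to competitive inhibition or Morrison tight-binding equation.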"}, "LogP": {"experiment": "LogP", "assay_type": "physicochemical"}},
  "data": [
    {"smiles": "CNC(=O)[C@@H](NC(=O)[C@@H](CC(=O)O)n1ccc(-c2ccc(-c3ccc(C#N)cc3)cc2)c1)C(C)(C)C", "note": "[Example 5(c), 3(R)-[3-(4′-Cyanobiphenyl-4-yl)-1H-pyrrol-1-yl]-N-[2,2-dimethyl-1(S)-(methylcarbamoyl)propyl]succinamic Acid]", "values": [
      {"measurement": "Ki", "setting": "[1]", "result": 0.049, "unit": "nM"},
      {"measurement": "Ki", "setting": "Human matrilysin (Matr)", "result": 305, "unit": "nM"},
      {"measurement": "logP", "setting": "LogP", "result": 3.41}
    ]}
  ]
}
